The values that follow come from patent US8299056B2 (Signal Pharmaceuticals, LLC, priority 2008, dated 2012).

The first assay deals with T1, Syk (Homo sapiens, UniProt P43405).
T1 construct: purchased Carna Biosciences
As to the kind of experiment: Syk HTRF assay. It is filed as biochemical. Particulars: IC50 activity level, read-out: Activity Level. A digest of the protocol:
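Read-out is the 665 nm/615 nm time-resolved fluorescence ratio after EDTA stop and Eu-anti-phosphotyrosine plus streptavidin-DyLight 647 detection. Reaction ran 1 h at room temperature with start mix of 87.5 μM ATP and 80 nM substrate peptide in pH 7.6 HEPES/MgCl2 buffer.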
For orientation: In TR-FRET formats the signal depends on donor and acceptor labels being close together.
For the compound `COc1cc(-c2cccc3nc(Nc4ccc5c(c4)NC(=O)C5(C)C)nn23)ccn1` [Example 559, 6-(5-(2-methoxypyridin-4-yl)-[1,2,4]triazolo[1,5-a]pyridin-2-ylamino)-3,3-dimethylindolin-2-one], the IC50 was in the range of 0.005 to 250 nM.

For `c1cc(NC2CCOCC2)n2nc(Nc3ccc(-c4nc[nH]n4)cc3)nc2c1` [Example 565, N^2-(4-(1H-1,2,4-triazol-3-yl)phenyl)-N^5-(tetrahydro-2H-pyran-4-yl)-[1,2,4]triazolo[1,5-a]pyridine-2,5-diamine], the IC50 was 1000 to 10000 nM. Same read-out and setting: in the case of `CC(C)Nc1cccc2nc(Nc3ccc4c(c3)NC(=O)C4(C)C)nn12` [Example 549, 6-(5-(isopropylamino)-[1,2,4]triazolo[1,5-a]pyridin-2-ylamino)-3,3-dimethylindolin-2-one] it was 0.005 to 250 nM; in that of `CC(C)Nc1cccc2nc(Nc3ccccc3)nn12` [Example 530, N^5-isopropyl-N^2-phenyl-[1,2,4]triazolo[1,5-a]pyrridine-2,5-diamine], 500 to 1000 nM; in that of `NC(=O)[C@H]1CC[C@H](Oc2cccc3nc(Nc4ccc(C(F)(F)F)cc4)nn23)CC1` (stereo in doubt) [Example 405, trans-4-(2-(4-(trifluoromethyl)phenylamino)-[1,2,4]triazolo[1,5-a]pyridin-5-yloxy)cyclohexanecarboxamide], 1000 to 10000 nM. Still for that read-out and setting: the same measure for `CNCc1nc2ccc(-c3cccc4nc(Nc5ccccc5)nn34)cc2o1` [Example 424, 5-(2-((methylamino)methyl)benzo[d]oxazol-6-yl)-N-phenyl-[1,2,4]triazolo[1,5-a]pyridin-2-amine]: 500 to 1000 nM; for `CC1(C)C(=O)Nc2cc(Nc3nc4cccc(N5CCOCC5)n4n3)ccc21` [Example 571, 3,3-dimethyl-6-(5-morpholino-[1,2,4]triazolo[1,5-a]pyridin-2-ylamino)indolin-2-one]: 0.005 to 250 nM. On the same count and under the same terms, in the case of `c1cc(NC2CCCNC2)n2nc(Nc3ccc4cn[nH]c4c3)nc2c1` (stereo in doubt) [Example 464, (S)-N^2-(1H-indazol-6-yl)-N^5-(piperidin-3-yl)-[1,2,4]triazolo[1,5-a]pyridine-2,5-diamine] it was 0.005 to 250 nM; in that of `OC[C@@H](Nc1cccc2nc(Nc3ccc(C(F)(F)F)cc3)nn12)c1ccccc1` [Example 413, (S)-2-phenyl-2-(2-(4-(trifluoromethyl)phenylamino)-[1,2,4]triazolo[1,5-a]pyridin-5-ylamino)ethanol], 1000 to 10000 nM.

The same assay, now with this note: activity levels A-D, read-out: Activity Level (IC50 in the Syk HTRF assay).
In the case of `CNC(=O)c1ccc(Nc2nc3cccc(CCC4CCNCC4)n3n2)cc1` [Example 254, N-methyl-4-(5-(2-(piperidin-4-yl)ethyl)-[1,2,4]triazolo[1,5-a]pyridin-2-ylamino)benzamide], the IC50 lay in the range of 500 to 1000 nM.

Take `COc1ccccc1Nc1nc2cccc(N[C@H]3CC[C@@H](O)CC3)n2n1` [Example 339, cis-4-(2-(2-methoxyphenylamino)-[1,2,4]triazolo[1,5-a]pyridin-5-ylamino)cyclohexanol]: the IC50 is 1000 to 10000 nM.

As to `NC(=O)c1cccc(Nc2nc3cccc(N[C@H]4CC[C@@H](O)CC4)n3n2)c1` [Example 337, cis-3-(5-(4-hydroxycyclohexylamino)-[1,2,4]triazolo[1,5-a]pyridin-2-ylamino)benzamide], the IC50 was 250 to 500 nM. Same read-out and setting: in the case of `CNC(=O)c1ccc(Nc2nc3cccc(N[C@H]4CC[C@@H](O)CC4)n3n2)cc1` [Example 386, cis-4-(5-(4-hydroxycyclohexylamino)-[1,2,4]triazolo[1,5-a]pyridin-2-ylamino)-N-methylbenzamide] it was 500 to 1000 nM; in that of `OC[C@H]1CCCC[C@H]1Nc1cccc2nc(Nc3ccc(C(F)(F)F)cc3)nn12` (stereo in doubt) [Example 356, (1S,2R)-(2-(2-(4-(trifluoromethyl)phenylamino)-[1,2,4]triazolo[1,5-a]pyridin-5-ylamino)cyclohexyl)methanol], 1000 to 10000 nM.

For the compound `OCC1CCN(c2cccc3nc(Nc4ccc(C(F)(F)F)cc4)nn23)CC1` [Example 346, (1-(2-(4-(trifluoromethyl)phenylamino)-[1,2,4]triazolo[1,5-a]pyridin-5-yl)piperidin-4-yl)methanol], the IC50 lay within 1000 to 10000 nM. Still for that read-out and setting: in the case of `CC(c1cccc2nc(Nc3ccc(C(F)(F)F)cc3)nn12)N1CCNC(=O)C1` (stereo not drawn) [Example 263, 4-(1-(2-(4-(trifluoromethyl)phenylamino)-[1,2,4]triazolo[1,5-a]pyridin-5-yl)ethyl)piperazin-2-one] it was 0.005 to 250 nM; in that of `OC[C@H]1CCN(Cc2cccc3nc(Nc4ccc(C(F)(F)F)cc4)nn23)C1` [Example 324, (S)-(1-((2-(4-(trifluoromethyl)phenylamino)-[1,2,4]triazolo[1,5-a]pyridin-5-yl)methyl)pyrrolidin-3-yl)methanol], 1000 to 10000 nM.

Take `CNC(=O)c1ccc(Nc2nc3cccc(N4CCC(O)C4)n3n2)cc1` (stereo in doubt) [Example 250, (R)-4-(5-(3-hydroxypyrrolidin-1-yl)-[1,2,4]triazolo[1,5-a]pyridin-2-ylamino)-N-methylbenzamide]: the IC50 was 500 to 1000 nM. Still for that read-out and setting: in the case of `CNc1ccc(Nc2nc3cccc(N[C@H]4CC[C@@H](O)CC4)n3n2)cn1` [Example 295, cis-4-(2-(6-(methylamino)pyridin-3-ylamino)-[1,2,4]triazolo[1,5-a]pyridin-5-ylamino)cyclohexanol] it was 0.005 to 250 nM; in that of `OC1CCCN(Cc2cccc3nc(Nc4ccc(C(F)(F)F)cc4)nn23)C1` (stereo in doubt) [Example 299, (R)-1-((2-(4-(trifluoromethyl)phenylamino)-[1,2,4]triazolo[1,5-a]pyridin-5-yl)methyl)piperidin-3-ol], 1000 to 10000 nM; in that of `O[C@H]1CCCN(c2cccc3nc(Nc4ccc(C(F)(F)F)cc4)nn23)C1` [Example 310, (S)-1-(2-(4-(trifluoromethyl)phenylamino)-[1,2,4]triazolo[1,5-a]pyridin-5-yl)piperidin-3-ol], 250 to 500 nM.

As for `O[C@@H]1CCN(c2cccc3nc(Nc4ccc(C(F)(F)F)cc4)nn23)C1` [Example 332, (R)-1-(2-(4-(trifluoromethyl)phenylamino)-[1,2,4]triazolo[1,5-a]pyridin-5-yl)pyrrolidin-3-ol], the IC50 was in the range of 500 to 1000 nM. Still for that read-out and setting: in the case of `O=c1cc(Cc2cccc3nc(Nc4ccc(C(F)(F)F)cc4)nn23)cc[nH]1` [Example 317, 4-((2-(4-(trifluoromethyl)phenylamino)-[1,2,4]triazolo[1,5-a]pyridin-5-yl)methyl)pyridin-2(1H)-one] it was 0.005 to 250 nM.

The same assay, now with this note: read-out: Activity Level (Syk HTRF assay IC50).
Consider `c1ccc(-c2cccc3nc(Nc4ccc5nn[nH]c5c4)nn23)cc1` [compound 49, N-(5-phenyl-[1,2,4]triazolo[1,5-a]pyridin-2-yl)-1H-benzo[d][1,2,3]triazol-6-amine], for which the IC50 is 0.005 to 250 nM. The same measure, in the same setting: in the case of `CNC(=O)c1ccc(Nc2nc3cccc(-c4cccc(OC)c4)n3n2)cc1` [compound 20, 4-(5-(3-methoxyphenyl)-[1,2,4]triazolo[1,5-a]pyridin-2-ylamino)-N-methylbenzamide] it was 250 to 500 nM; in that of `NC(=O)c1cc(Nc2nc3cccc(-c4ccccc4)n3n2)ccc1F` [compound 65, 2-fluoro-5-(5-phenyl-[1,2,4]triazolo[1,5-a]pyridin-2-ylamino)benzamide], 1000 to 10000 nM.

On to `O=C1NCc2cc(Nc3nc4cccc(-c5ccccc5)n4n3)ccc21` [compound 69, 5-(5-phenyl-[1,2,4]triazolo[1,5-a]pyridin-2-ylamino)isoindolin-1-one], for which the IC50 lay within 250 to 500 nM. Still for that read-out and setting: the same measure for `Cc1n[nH]c2cc(Nc3nc4cccc(NC[C@H]5CCC(O)C5)n4n3)ccc12` (stereo in doubt) [Example 180, (1R,3S)-3-((2-(3-methyl-1H-indazol-6-ylamino)-[1,2,4]triazolo[1,5-a]pyridin-5-ylamino)methyl)cyclopentanol]: 0.005 to 250 nM; for `CNC(=O)c1ccc(Nc2nc3cccc(-c4cccc(C(=O)O)c4)n3n2)cc1` [compound 30, 3-(2-(4-(methylcarbamoyl)phenylamino)-[1,2,4]triazolo[1,5-a]pyridin-5-yl)benzoic acid]: 1000 to 10000 nM; for `Oc1cccc(-c2cccc3nc(Nc4ccc(-c5ncc[nH]5)cc4)nn23)c1` [compound 16, 3-(2-(4-(1H-imidazol-2-yl)phenylamino)-[1,2,4]triazolo[1,5-a]pyridin-5-yl)phenol]: 0.005 to 250 nM. For `CC1(C)NC(=O)c2cc(Nc3nc4cccc(N[C@H]5CC[C@@H](O)CC5)n4n3)ccc21` [compound 120, cis-6-(5-(4-hydroxycyclohexylamino)-[1,2,4]triazolo[1,5-a]pyridin-2-ylamino)-3,3-dimethylisoindolin-1-one], the IC50 was in the range of 250 to 500 nM. On the same count and under the same terms, the same measure for `c1ccc(-c2cccc3nc(Nc4ccc5ncccc5c4)nn23)cc1` [compound 59, N-(5-phenyl-[1,2,4]triazolo[1,5-a]pyridin-2-yl)quinolin-6-amine]: 0.005 to 250 nM. Still for that read-out and setting: the same measure for `CNC(=O)c1ccc(Nc2nc3cccc(-c4cc(Cl)cc(-c5ccccc5C(N)=O)c4)n3n2)cc1` [compound 5, 3′-chloro-5′-(2-(4-(methylcarbamoyl)phenylamino)-[1,2,4]triazolo[1,5-a]pyridin-5-yl)biphenyl-2-carboxamide]: 0.005 to 250 nM; for `CN1Cc2cc(Nc3nc4cccc(NC5CCOCC5)n4n3)ccc2C1=O` [Example 144, 2-methyl-5-(5-(tetrahydro-2H-pyran-4-ylamino)-[1,2,4]triazolo[1,5-a]pyridin-2-ylamino)isoinoldin-1-one]: 1000 to 10000 nM; for `Oc1ccc(Nc2nc3cccc(-c4ccccc4)n3n2)cn1` [compound 70, 5-(5-phenyl-[1,2,4]triazolo[1,5-a]pyridin-2-ylamino)pyridine-2-ol]: 1000 to 10000 nM. With `CN1C(=O)C(C)(C)c2ccc(Nc3nc4cccc(N[C@H]5CC[C@H](O)CC5)n4n3)cc21` (stereo in doubt) [Example 146, trans-6-(5-(4-hydroxycyclohexylamino)-[1,2,4]triazolo[1,5-a]pyridin-2-ylamino)-1,3,3-trimethylindolin-2-one], the IC50 is 0.005 to 250 nM.
